# According to patent US8211929B2, “Pyrimidine derivatives as kinase modulators and method of use” (Exelixis, Inc., priority 2004, dated 2012):
# Columns and labels:
# [1] = biological target: T1, (Homo sapiens, UniProt P08069); experiment: IGF1R kinase assay (LCCA), IGF 0P; assay type: biochemical; conditions: IGF1R kinase LCCA assay
# T1 construct: human IGF1R kinase domain residues M954-C1367; made in house; host or cells: baculovirus expression (insect cells)
# Description: (§1) Kinase activity and compound inhibition are investigated using one or more of the three assay formats described below. The ATP concentrations for each assay are selected to be close to the Michaelis-Menten constant (KM) for each individual kinase. Dose-response experiments are performed at 10 different inhibitor concentrations in a 384-well plate format. […] Y=Min+(Max−Min)/(1+(X/IC50)^H) Equation (2)
# (§2) IGF1R kinase biochemical activity was assessed using a Luciferase-Coupled Chemiluminescent Kinase assay (LCCA) format. Kinase activity was measured as the percent ATP remaining following the kinase reaction. Remaining ATP was detected by luciferase-luciferin-coupled chemiluminescence. Specifically, the reaction was initiated by mixing test compounds, 3 μM ATP, 4 μM poly EY peptide and 4 nM IGF1R (baculovirus expressed human IGF1R kinase domain residues M954-C1367) in a 20 uL assay buffer (20 mM Tris-HCL pH7.5, 10 mM MgCl2, 0.02% Triton X-100, 1 mM DTT, 2 mM MnCl2). The mixture is incubated at ambient temperature for 2 hours after which 20 uL luciferase-luciferin mix is added and the chemiluminescent signal read using a Wallac Victor^2 reader.
# [2] = biological target: T2, IGF 3P (Homo sapiens, UniProt P08069); experiment: IGF1R kinase assay (LCCA), IGF 3P; assay type: biochemical; conditions: IGF1R kinase LCCA assay
# T2 construct: human IGF1R kinase domain residues M954-C1367; made in house; host or cells: baculovirus expression (insect cells)
# T2 sequence (P08069 954-1367): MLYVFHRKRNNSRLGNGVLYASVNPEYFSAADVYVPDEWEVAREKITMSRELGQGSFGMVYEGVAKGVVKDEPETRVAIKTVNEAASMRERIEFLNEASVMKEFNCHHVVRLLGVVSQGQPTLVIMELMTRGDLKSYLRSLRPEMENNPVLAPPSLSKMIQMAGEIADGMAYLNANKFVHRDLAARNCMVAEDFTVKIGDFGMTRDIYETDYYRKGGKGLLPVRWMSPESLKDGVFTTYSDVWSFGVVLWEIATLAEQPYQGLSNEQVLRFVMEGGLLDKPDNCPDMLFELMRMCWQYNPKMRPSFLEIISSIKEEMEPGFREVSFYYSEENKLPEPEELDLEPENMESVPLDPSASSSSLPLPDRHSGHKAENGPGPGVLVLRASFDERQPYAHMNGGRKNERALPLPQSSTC
# Description: as §1, §2
# T1 sequence (P08069 954-1367): as above
IC50 [1] [µM],IC50 [2] [µM],Compound
0.5 to 5,0.5 to 5,NC(=O)c1ccc(Oc2ncc(Br)c(Nc3cc(C4CC4)n[nH]3)n2)cc1 [Example 158]
> 5,0.5 to 5,CCN(CC)CCCNc1nc(Nc2cc(C3CC3)n[nH]2)c(Cl)c(Nc2ccccc2Cl)n1 [Example 160]
0.5 to 5,0.5 to 5,Brc1ccc(Nc2ncc(Br)c(Nc3cc(C4CC4)n[nH]3)n2)c(Br)c1 [Example 163]
0.5 to 5,0.5 to 5,CN1CCC(NC(=O)c2ccc(Nc3nccc(Nc4cc(C5CC5)n[nH]4)n3)cc2)CC1 [Example 164]
0.5 to 5,0.5 to 5,Cc1ccc(C(C)C)cc1Nc1ncc(Br)c(Nc2cc(C3CC3)n[nH]2)n1 [Example 165]
0.5 to 5,0.5 to 5,N#Cc1ccc(Nc2ncc(Br)c(Nc3cc(C4CC4)n[nH]3)n2)cc1 [Example 166]
0.5 to 5,0.5 to 5,CCN(CC)CCNC(=O)c1ccc(Nc2ncc(C)c(Nc3cc(C4CC4)n[nH]3)n2)cc1 [Example 167]
0.05 to 0.5,0.5 to 5,Fc1cnc(Nc2ccccc2Cl)nc1Nc1cc(C2CC2)[nH]n1 [Example 168]
0.5 to 5,0.5 to 5,O=C(Nc1ccc(Cl)c(Nc2ncc(Br)c(Nc3cc(C4CC4)[nH]n3)n2)c1)c1ccccc1 [Example 169]
0.5 to 5,0.5 to 5,Brc1cnc(NCCc2cccs2)nc1Nc1cc(C2CC2)n[nH]1 [Example 170]
0.05 to 0.5,0.5 to 5,Brc1ccc(Br)c(Nc2ncc(Br)c(Nc3cc(C4CC4)n[nH]3)n2)c1 [Example 172]
0.5 to 5,0.5 to 5,Cc1cc(Nc2cc(C3CC3)n[nH]2)nc(Nc2ccc3cc(C(=O)NCCN4CCCC4)sc3c2)n1 [Example 173]
0.5 to 5,0.5 to 5,Cc1cnc(Nc2ccc(N(C)C)cc2)nc1Nc1cc(C2CC2)n[nH]1 [Example 175]
0.05 to 0.5,0.5 to 5,Cc1cc(Nc2cc(C3CC3)[nH]n2)nc(NCc2cc(-c3ccc(Cl)cc3)no2)n1 [Example 178]
0.5 to 5,0.5 to 5,Brc1cnc(NCc2nccs2)nc1Nc1cc(C2CC2)[nH]n1 [Example 179]
0.5 to 5,0.5 to 5,Brc1cnc(Nc2ccc3c(c2)CCC3)nc1Nc1cc(C2CC2)[nH]n1 [Example 180]
0.5 to 5,0.5 to 5,CCN(CC)CCCNC(=O)c1ccc(Nc2ncc(C)c(Nc3cc(C4CC4)n[nH]3)n2)cc1 [Example 181]
0.5 to 5,0.5 to 5,CCN(CC)CCCNc1cc(Nc2cc(C3CC3)n[nH]2)nc(Nc2ccccc2Cl)n1 [Example 182]
0.5 to 5,0.5 to 5,CCN(CC)CCNC(=O)c1ccc(Nc2nccc(Nc3cc(C4CC4)n[nH]3)n2)cc1 [Example 184]
0.5 to 5,0.5 to 5,CN1CCN(c2ccc(CNc3ncc(Br)c(Nc4cc(C5CC5)n[nH]4)n3)cc2)CC1 [Example 186]
0.5 to 5,0.5 to 5,COc1cc(CNc2ncc(Br)c(Nc3cc(C4CC4)[nH]n3)n2)cc(OC)c1 [Example 187]
0.05 to 0.5,0.5 to 5,Brc1cnc(NCc2cc(-c3ccccc3)no2)nc1Nc1cc(C2CCCC2)n[nH]1 [Example 189]

IC50 [1] [µM],IC50 [2] [µM],Compound
0.5 to 5,0.5 to 5,Clc1ccccc1Nc1ncc(Br)c(Nc2cc[nH]n2)n1 [Example 192]
> 5,0.5 to 5,CN(C)c1ccc(CNc2ncc(Br)c(Nc3cc(C4CC4)n[nH]3)n2)cc1 [Example 193]
0.5 to 5,0.5 to 5,CCN(CC)CCCNC(=O)c1ccc(Nc2nccc(Nc3cc(C4CC4)n[nH]3)n2)cc1 [Example 195]
0.5 to 5,0.5 to 5,N#Cc1cccc(Nc2ncc(Br)c(Nc3cc(C4CC4)n[nH]3)n2)c1 [Example 196]
> 5,0.5 to 5,Brc1cnc(NCC2CCNCC2)nc1Nc1cc(C2CC2)n[nH]1 [Example 198]
> 5,0.5 to 5,Brc1cnc(N2CCOCC2)nc1Nc1cc(C2CC2)[nH]n1 [Example 200]
> 5,0.5 to 5,Brc1cnc(NCC2CCCO2)nc1Nc1cc(C2CC2)n[nH]1 (stereo not shown) [Example 201]
0.5 to 5,0.5 to 5,COc1cc(Nc2nccc(Nc3cc(C4CC4)n[nH]3)n2)cc(OC)c1 [Example 203]
0.5 to 5,0.5 to 5,CN(Cc1ccccc1Cl)c1ncc(Br)c(Nc2cc(C3CC3)[nH]n2)n1 [Example 204]
0.5 to 5,0.5 to 5,Clc1cccc(Nc2nc(Nc3ccccc3Cl)ncc2Br)c1 [Example 205]
0.5 to 5,0.5 to 5,COc1ccccc1CNc1nc(C)cc(Nc2cc(C3CC3)[nH]n2)n1 [Example 207]
0.05 to 0.5,0.5 to 5,Clc1ccccc1Nc1nc(Nc2cc(C3CC3)n[nH]2)c2nc[nH]c2n1 [Example 210]
0.5 to 5,0.5 to 5,Cc1cc(Nc2cc(C3CC3)n[nH]2)nc(Nc2ccc(N(C)C)cc2)n1 [Example 213]
> 5,0.5 to 5,Brc1cnc(NC2CCNCC2)nc1Nc1cc(C2CC2)[nH]n1 [Example 214]
> 5,0.5 to 5,Cc1cc(Nc2nc(Nc3ccc(N4CCOCC4)cc3)ncc2Br)n(C)n1 [Example 215]
0.5 to 5,0.5 to 5,Brc1cnc(NCc2csc(-c3cccs3)n2)nc1Nc1cc(C2CC2)[nH]n1 [Example 218]
0.05 to 0.5,0.5 to 5,Nc1cnc(Nc2ccccc2Cl)nc1Nc1cc(C2CC2)n[nH]1 [Example 220]
0.5 to 5,0.5 to 5,CCN(CC)CCNC(=O)c1cc2ccc(Nc3nc(C)cc(Nc4cc(C5CC5)n[nH]4)n3)cc2s1 [Example 221]
0.5 to 5,0.5 to 5,Clc1ccccc1Nc1ncc(Br)c(Nc2ccccc2Cl)n1 [Example 222]
0.05 to 0.5,0.5 to 5,CN(c1ccccc1)c1ncc(Br)c(Nc2cc(C3CC3)[nH]n2)n1 [Example 223]
0.5 to 5,0.5 to 5,c1cc(Nc2cc(C3CC3)n[nH]2)nc(Nc2ccc(N3CCOCC3)cc2)n1 [Example 224]
> 5,0.5 to 5,Clc1cccc(CCNc2ncc(Br)c(Nc3cc(C4CC4)n[nH]3)n2)c1 [Example 226]

IC50 [1] [µM],IC50 [2] [µM],Compound
0.5 to 5,0.5 to 5,CC(=O)Nc1ccc(Cl)c(Nc2nccc(Nc3cc(C4CC4)[nH]n3)n2)c1 [Example 227]
0.5 to 5,0.5 to 5,O=C(NCCN1CCOCC1)c1nc(Nc2ccccc2Cl)nc(Nc2cc(C3CC3)n[nH]2)c1[N+](=O)[O-] [Example 228]
> 5,0.5 to 5,Clc1ccc(CCNc2ncc(Br)c(Nc3cc(C4CC4)n[nH]3)n2)cc1 [Example 230]
> 5,0.5 to 5,FC(F)(F)Oc1ccc(Nc2ncc(Br)c(Nc3cc(C4CC4)[nH]n3)n2)c(Br)c1 [Example 237]
0.5 to 5,0.5 to 5,CN(C)c1ccc(Nc2nccc(Nc3cc(C4CC4)n[nH]3)n2)cc1 [Example 238]
0.5 to 5,0.5 to 5,O=C(NCc1ccccc1)c1nc(Nc2ccccc2Cl)nc(Nc2cc(C3CC3)n[nH]2)c1[N+](=O)[O-] [Example 239]
> 5,0.5 to 5,Clc1ccc(CCNc2ncc(Br)c(Nc3cc(C4CC4)n[nH]3)n2)c(Cl)c1 [Example 240]
0.5 to 5,0.5 to 5,Fc1c(Cl)cccc1Nc1ncc(Br)c(Nc2cc(C3CC3)n[nH]2)n1 [Example 241]
0.5 to 5,0.5 to 5,c1ccc(CN2CCc3c(nc(NCc4cc(-c5ccccc5)no4)nc3Nc3cc(C4CC4)[nH]n3)C2)cc1 [Example 242]
0.5 to 5,0.5 to 5,Cc1cc(Nc2cc(-c3ccco3)[nH]n2)nc(NCc2cc(-c3ccccc3)no2)n1 [Example 246]
> 5,0.5 to 5,COc1ccc(CNc2ncc(Br)c(Nc3cc(C4CC4)n[nH]3)n2)cc1OC [Example 247]
> 5,0.5 to 5,CN1CCN(c2ncc(Br)c(Nc3cc(C4CC4)[nH]n3)n2)CC1 [Example 249]
0.5 to 5,0.5 to 5,Cc1cc(Nc2cc(C3CC3)[nH]n2)nc(NCc2nc(-c3ccccc3)cs2)n1 [Example 252]
> 5,0.5 to 5,CN(C)CCCNc1ncc(Br)c(Nc2cc(C3CC3)n[nH]2)n1 [Example 254]
> 5,0.5 to 5,Brc1cnc(Nc2ccc(N3CCNCC3)cc2)nc1Nc1cc(C2CC2)n[nH]1 [Example 255]
> 5,> 5,COc1cc(Nc2ncc(Br)c(Nc3cc(C4CC4)n[nH]3)n2)cc(C(F)(F)F)c1 [Example 258]
0.5 to 5,> 5,Cc1cc(Nc2cc(C3CC3)n[nH]2)nc(Nc2cc(F)cc(F)c2)n1 [Example 259]
> 5,> 5,Brc1cnc(Nc2ccccc2N2CCOCC2)nc1Nc1cc(C2CC2)n[nH]1 [Example 260]
0.5 to 5,> 5,COc1cc(Nc2nc(C)cc(Nc3cc(C4CC4)[nH]n3)n2)cc(OC)c1 [Example 261]
0.5 to 5,> 5,FC(F)(F)c1cccc(CNc2ncc(Br)c(Nc3cc(C4CC4)n[nH]3)n2)c1 [Example 263]
> 5,> 5,FC(F)(F)Oc1cccc(Nc2ncc(Br)c(Nc3cc(C4CC4)n[nH]3)n2)c1 [Example 264]
